Experimental data published in patent publication US9352049B2, “Ligand-therapeutic agent conjugates, silicon-based linkers, and methods for making and using them” (Albany Molecular Research, Inc., priority 2013, dated 2016).

Key:
[1] = Cleavage study of silyl conjugates at pH 7.4 (THF:0.01 M PBS buffer, 37° C.); format: physicochemical
Description: (§1) To study the release properties of the silyl conjugates, the conjugates were subject to hydrolysis conditions at both pH 7.4 and pH 4.5 to simulate blood and endosomes/lysosome environments, respectively.
Example 12 and Example 15 were dissolved in THF:0.01 M PBS buffer (pH 7.4) and heated to 37° C. with stirring for over 20 hours. […] Additionally, Example 11 was trapped with methyl-3-mercaptopropionate to approximate a bioconjugate.

[2] = Cleavage study of silyl conjugates at pH 4.5 (1:1 THF:0.05 M acetate buffer, 37° C., HPLC); format: physicochemical; details: HPLC over 24 hours
Description: as §1
The benzyl ester intermediates from Example 11 (step A), Example 12, Example 13, Example 14 (step A), and Example 15 were each dissolved in a 1:1 mixture of THF:0.05 M acetate buffer (pH 4.5) and heated to 37° C. with stirring. The mixture was analyzed with HPLC at T=1, 2, 3, 4, 5, 7 and 24 hours via Method B (see General Procedures in Example 1). Aliquots were quenched in a 1:1 acetonitrile:triethylamine solvent mixture to halt the hydrolysis reaction and allowed to stand up to 48 hours before HPLC analysis.

SMILES | hydrolysis (e.g. parent vinca) at pH 7.4 ([1]; THF:0.01 M PBS buffer (pH 7.4), 37° C., over 20 hours) | desilylation at pH 7.4 ([1]; pH 7.4, 37° C., after 24 hours) | hydrolysis (release of desilylated parent vinca) in acidic media [2]
CC[C@]1(O)CC2CN(CCc3c([nH]c4ccccc34)[C@@](C(=O)OC)(c3cc4c(cc3OC)N(C)[C@H]3[C@@](O)(C(=O)OC)[C@H](O[Si]5(CCCCC(=O)OCc6ccccc6)CCCC5)[C@]5(CC)C=CCN6CC[C@]43[C@@H]65)C2)C1 (stereo partly drawn) [Example 12, (3aR,3a^1R,4R,5S,10bR)-methyl 4-((1-(5-(benzyloxy)-5-oxopentyl)silolan-1-yl)oxy)-3a-ethyl-9-((5S,7R,9S)-5-ethyl-5-hydroxy-9-(methoxycarbonyl)-2,4,5,6,7,8,9,10-octahydro-1H-3,7-methano[1]azacycloundecino[5,4-b]indol-9-yl)-5-hydroxy-8-methoxy-6-methyl-3a,3a^1,4,5,5a,6,11,12-octahydro-1H-indolizino[8,1-cd]carbazole-5-carboxylate] | No evidence of hydrolysis | – | –
CC[C@]1(O)CC2CN(CCc3c([nH]c4ccccc34)[C@@](C(=O)OC)(c3cc4c(cc3OC)N(C)[C@H]3[C@@](O)(C(=O)OC)[C@H](O[Si]5(CCCCC(=O)NCCOCCN6C(=O)CC(SCCC(=O)OC)C6=O)CCCCC5)[C@]5(CC)C=CCN6CC[C@]43[C@@H]65)C2)C1 (stereo partly drawn) [Example 19, (3aR,3a^1R,4R,5S,10bR)-methyl 3a-ethyl-9-((5S,7R,9S)-5-ethyl-5-hydroxy-9-(methoxycarbonyl)-2,4,5,6,7,8,9,10-octahydro-1H-3,7-methano[1]azacycloundecino[5,4-b]indol-9-yl)-5-hydroxy-8-methoxy-4-((1-(5-((2-(2-(3-((3-methoxy-3-oxopropyl)thio)-2,5-dioxopyrrolidin-1-yl)ethoxy)ethyl)amino)-5-oxopentyl)silinan-1-yl)oxy)-6-methyl-3a,3a^1,4,5,5a,6,11,12-octahydro-1H-indolizino[8,1-cd]carbazole-5-carboxylate] | – | no desilylation was observed | undergo parent vinca release at a rate comparable to the corresponding benzyl ester from Example 11 (step A)
